{
  "source": "patent US11376242B2",
  "about": "“Methods and compositions for treating obesity and/or diabetes and for identifying candidate treatment agents” (The J. David Gladstone Institutes, a testamentary trust …, priority 2016, dated 2022)",
  "key": {"[1]": {"test_system": "ClpP substrate protein levels in mouse MEF cells", "experiment": "Western blot analysis of ClpP substrates in MEF cells treated with ClpP inhibitors", "type": "cell-based", "details": "10 μM in OPTI-MEM twice a day for 2 days (48 hr); wild type mouse MEF cells; western blot (FIGS. 24 and 25)", "description": "(§1) Western blot. Tissues or cells were lysated in low-detergent buffer (50 mM Tris/HCl, pH 8.0, 150 mM NaCl, 0.1% SDS, 0.5% Nonidet P-40, 0.5% sodium deoxycholate) with a mixture of protease inhibitors. Phosphatase inhibitors were also included in the lysate buffer. The lysates were centrifuged at 13,000 rpm for 10 min to remove the pellets. SDS-PAGE was performed with a NuPAGE bis-tris system from Invitrogen, following the vendor's protocol. A standard western blot protocol was used with IRDye-labeled secondary antibodies (Li-cor). A Li-cor image system was used to scan the western blot images.\n(§2) Wild type mouse MEF cells were seeded at 200,000 cells per well at 6 well plates the day before treatment. Cells were treated with the small molecule ClpP inhibitors A2-32-01, AV167, and AV179 (described previously herein) at 10 μM in OPTI-MEM twice a day for 2 days (48 hr). For each treatment, the old medium will be removed and fresh medium added to the wells. After 48 hr treatment, the cells were harvested for western blot analysis or qPCR assay of ClpP substrates."}, "[2]": {"test_system": "mRNA level of these genes in mouse MEF cells", "experiment": "qPCR assay of ClpP substrates in MEF cells treated with ClpP inhibitor", "type": "cell-based", "details": "10 μM twice a day for 2 days (48 hr), qPCR (FIG. 26)", "description": "as §2"}, "[3]": {"test_system": "high fat diet (HFD)-induced obesity and diabetes mouse models", "experiment": "In vivo treatment in high fat diet (HFD)-induced obesity and diabetes mouse model", "description": "Animals. All mice were maintained on a 12-h light/dark cycle in a pathogen-free animal facility. Mice were separately housed by their genotypes for all metabolic studies. For high-fat diet (HFD)-induced obesity studies, animals were fed a HFD (21% by weight, 42% kcal from fat, 0.2% total cholesterol; TD.01064, Harlan-Teklad) for specified periods. Anesthesia was induced with isoflurane (survival procedures) or with avertin (terminal procedures). All procedures were approved by the UCSF Animal Research Committee and followed NIH guidelines. Animal sample sizes for different assays were chosen based on previous literature. Animals were grouped according to genotype; no randomization was used. For all behavior tests, all animal IDs were blinded to tester. Testers were not blinded for other assays.\n(§3) Measurement of blood glucose and plasma insulin. Blood glucose was measured with a glucometer and glucose test strips (Free Style Lite). Plasma insulin was quantified with an insulin Elisa kit (Crystal Chem).\n(§4) Glucose, insulin, and pyruvate tolerance tests. Glucose, insulin, and pyruvate tolerance tests were performed by intraperitoneal injection of glucose (2 g/kg), insulin (0.5 units/kg) or pyruvate (2 g/kg) after an overnight fast for glucose and pyruvate or a 4-h fast for insulin. Blood glucose levels were measured before injection and at different time points after injection. To assess glucose-stimulated insulin release, mice fasted overnight (for 16 h) and were then injected intraperitoneally with glucose (2 g/kg). Blood samples were collected from tail veins before injection and at different time points after injection.\n(§5) Histological analysis. Tissues (liver, visceral adipose, gastrocnemius muscle, interscapular brown adipose, and pancreas) were fixed in 4% paraformaldehyde (pH 7.4) overnight, embedded in paraffin, and serially sectioned at 7-8 μm. Standard haematoxylin and eosin staining was performed.\n7-9 month old WT female (20 mice), were fed with high fat diet for 3 weeks. Body weight change and blood glucose/plasma insulin levels in response to HFD were measured. At the beginning of the 4th week, for treatment group, A2-32-01 was injected peritoneally twice daily at 300 mg/kg for 8 days. For the control group, corn oil (vehicle) was injected. The mice were maintained on HFD. The body weight change was followed every day. At the 8th day of A2-32-01 injection, blood glucose levels were measured, and a glucose tolerance test was applied to measure insulin sensitivity.\n(§6) The in-vivo analysis described in Examples 9 and 10 was continued in accordance with the experimental protocol shown in FIG. 30."}, "[4]": {"target": "T1, ClpP (Mus musculus, UniProt O88696)", "T1 construct": "ClpP activity was lower in liver mitochondrion lysates from A2-32-01-treated mice compared to those from vehicle-treated mice; from tissue; host or cells: liver mitochondria of HFD-fed wild-type mice dosed in vivo with A2-32-01", "T1 sequence (O88696 53-272)": "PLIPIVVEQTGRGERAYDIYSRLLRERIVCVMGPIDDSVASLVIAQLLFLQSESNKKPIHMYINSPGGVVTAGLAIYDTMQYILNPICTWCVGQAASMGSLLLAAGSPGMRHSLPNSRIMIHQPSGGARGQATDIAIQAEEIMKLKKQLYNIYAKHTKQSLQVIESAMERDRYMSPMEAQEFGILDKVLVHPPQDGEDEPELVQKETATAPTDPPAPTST", "experiment": "ClpP activity in liver mitochondrion lysates from treated HFD-fed mice", "type": "in vivo", "details": "HFD-fed WT mice; vs vehicle-treated (FIG. 32 left panel)", "description": "(§7) The in-vivo analysis of Example 9 is continued, with collection of the blood and multiple organs (liver/muscle/brain) at day 9 of A2-32-01 injection. Mitochondria are isolated from mouse liver and ClpP activity is tested using peptide substrates, e.g., as described herein. Western blot analysis is performed to detect ClpP substrate levels.\nas §6"}, "[5]": {"test_system": "tentative ClpP effectors (Trap1, ClpX, LRPPRC, LonP, and OAT)", "experiment": "Western blot of tentative ClpP effectors in liver mitochondrion lysates from treated HFD-fed mice", "type": "in vivo, mouse", "details": "HFD-fed WT mice, vs vehicle-treated (FIG. 32 right panel)", "description": "as §1, §7, §6"}, "[6]": {"test_system": "db/db mice (a model of obesity, diabetes, and dyslipidemia)", "experiment": "In vivo treatment of db/db mice", "set-up": "species or system mouse", "description": "as §3, §4, §5"}, "[7]": {"target": "T1, ClpP", "experiment": "ClpP activity in liver mitochondria lysates from treated db/db mice", "type": "in vivo", "details": "vs vehicle (FIG. 35 panel E)"}, "[8]": {"details": "WT mice on HFD, H&E and oil red staining, vs vehicle (FIG. 33)"}, "[9]": {"details": "H&E and oil red staining, vs vehicle (FIG. 36)"}},
  "data": [
    {"smiles": "C=CCCCCCCC[C@H]1C(=O)O[C@@H]1CCc1cccnc1", "note": "(racemic) [A2-32-01, (3RS,4RS)-3-(non-8-en-1-yl)-4-(2-(pyridin-3-yl)ethyl)oxetan-2-one]", "values": [
      {"measurement": "ClpP substrate protein levels", "setting": "[1]", "value": "increased"},
      {"measurement": "mRNA level of ClpP substrate genes", "setting": "[2]", "value": "remained unchanged"},
      {"measurement": "body weight", "setting": "[3]; 300 mg/kg peritoneally twice daily, day 2 through day 7, HFD-fed WT female mice, vs vehicle control (FIG. 28)", "value": "significant decrease"},
      {"measurement": "insulin sensitivity (glucose tolerance test)", "setting": "[3]; 300 mg/kg peritoneally twice daily, day 8, HFD-fed WT mice, vs vehicle control (FIG. 29)", "value": "significant improvement"},
      {"measurement": "insulin sensitivity (glucose tolerance tests)", "setting": "[3]; Example 11, HFD-fed WT mice, vs vehicle (FIG. 31 right panel)", "value": "increased"},
      {"measurement": "body weight", "setting": "[3]; Example 11, mice on HFD, vs vehicle-treated (FIG. 31 left panel)", "value": "significantly decreased"},
      {"measurement": "lipid accumulation in liver cells", "setting": "[3]; [8]", "value": "lowered"},
      {"measurement": "morphology of liver cells", "setting": "[3]; [8]", "value": "restored normal morphology"},
      {"measurement": "ClpP activity in liver mitochondrion lysates", "setting": "[4]", "value": "lower"},
      {"measurement": "levels of tentative ClpP effectors (Trap1, ClpX, LRPPRC, LonP, and OAT) in liver mitochondrion lysates", "setting": "[5]", "value": "higher"},
      {"measurement": "lipid accumulation in liver cells", "setting": "[6]; [9]", "value": "lowered"},
      {"measurement": "morphology of liver cells", "setting": "[6]; [9]", "value": "restored normal morphology"},
      {"measurement": "body weight", "setting": "[6]; at the end of the treatment, vs vehicle (FIG. 34 panel B)", "value": "significantly decreased"},
      {"measurement": "insulin sensitivity (glucose tolerance tests)", "setting": "[6]; vs vehicle (FIG. 35 panel C)", "value": "increased"},
      {"measurement": "fasting blood glucose levels", "setting": "[6]; vs vehicle (FIG. 35 panel D)", "value": "significantly lower"},
      {"measurement": "ClpP activity in liver mitochondria lysates", "setting": "[7]", "value": "lower"}
    ]}
  ]
}
